These results are taken from BindingDB's records for doi:10.1021/jm00017a010 (Sapienza University of Rome, 1995).

By IC50 is commonly meant the concentration needed to halve the response being measured.

The test concerns the target T1, Gag-Pol polyprotein [588-1027]/[588-1147] (Human immunodeficiency virus 1, UniProt P04585).
T1 construct: 588-1027; 588-1147
The test is described as follows: HIV-1 RT Assay. From the text:
The IC50 of reverse transcriptase is the concentration that inhibits 50% of recombinant HIV-1 RT RNA-directed DNA polymerase activity in vitro.

Consider `Cc1cccc(Cc2nc(S)nc(O)c2C)c1` [4-Hydroxy-2-mercapto-5-methyl-6-(3-methylbenzyl)pyrimidine], for which the IC50 (pH 7.8, 37 °C) was > 10 µM. The same measure, in the same setting: with `Cc1cccc(Cc2cc(=O)[nH]c(=S)[nH]2)c1` [6-[(3-methylphenyl)methyl]-2-sulfanylidene-1,2,3,4-tetrahydropyrimidin-4-one] the figure was > 10 µM; with `Cc1c(O)nc(S)nc1Cc1ccccc1` [6-benzyl-4-hydroxy-2-mercapto-5-methylpyrimidine], > 10 µM. For the molecule `CC1(C)C(=O)NC(SC2CCCC2)=N/C1=C/c1ccccc1` [(6E)-2-(cyclopentylsulfanyl)-5,5-dimethyl-6-(phenylmethylidene)-3,4,5,6-tetrahydropyrimidin-4-one], the IC50 was > 10 µM. On to `CC(C)Sc1nc(Cc2ccccc2)cc(=O)[nH]1` [S-DABO], for which the IC50 (pH 7.8, 37 °C) was > 10 µM. As to `CC1(C)C(=O)NC(SC2CCCCC2)=N/C1=C/c1ccccc1` [S-DABO], the IC50 is > 10 µM.

Consider `CSc1nc(Cc2ccccc2)cc(=O)[nH]1` [S-DABO], for which the IC50 (pH 7.8, 37 °C) was > 10 µM.

As to `CSc1nc(O)cc(Cc2cccc(C)c2)n1` [S-DABO], the IC50 (pH 7.8, 37 °C) was > 10 µM.
